Several values for one entry are separate records, joined by “and”; a condition that tells them apart may be missing. Identical values can stand only once.
How the values were obtained:
[1] = Plasma and brain exposure at anticonvulsant doses in mice (literature); type: in vivo; conditions: from peak plasma concentration and brain-plasma ratio
Cav3.2 [2] = target: T1, Cav3.2 (Homo sapiens, UniProt O95180); assay: FLIPR calcium 5 assay, inhibition of 10 mM Ca-induced fluorescence; type: cell-based; conditions: for % Inhibition of Fluorescence Cav3.2: 10 µM compound, 10 mM Ca-induced fluorescence, HEK293 cells, mean ± SEM
T1 construct: expressed in transfected cells; host or cells: HEK293 Flp-In T-REx
Description: (§1) Calcium 5 dye (Molecular Devices, United States ) was used to investigate compound activities at T-type calcium channels using Flexstation III. HEK293 cells overexpressing Cav3.1, Cav 3.2, and Cav 3.3 cells were resuspended in Leibovitz’s L-15 media containing 1% FBS, 1% P/S and 15 mM glucose. 90 µl of the resuspended cells (120,000 cells/well) were plated in a black-walled, 96-well microplate (Corning, NY, United States ) and incubated overnight in humidified air at 37°C. Channel expression was induced with tetracycline (2 μg/ml, Sigma-Aldrich) at plating. On the day of the assay, 90 µl of HBSS containing 5% Calcium dye (bulk kit) and 2.5 mM probenecid (Invitrogen, United States ) was added to each well and incubated for 1 h at 37°C. Change in fluorescence was measured in a FlexStation III plate reader every 2 s (ʎexcitation = 485 nm, ʎemission = 525 nm) for the duration of the experiment at 37°C. After 2 min baseline recording, drugs (20 µL) were added and read for 5 min, followed by 10 mM CaCl2 (20 µl) and read for a further 3 min.
(§2) Unless otherwise stated, five independent experiments were performed for each condition, with each experiment conducted in duplicate. For the calcium assay, change in fluorescence by 10 mM Ca in the presence of drugs was normalised to change in fluorescence caused by 10 mM Ca in the presence of vehicle only to allow for comparison. In the Alphascreen assay, results were normalised to EC80 of ML-186 after subtraction of basal ERK phosphorylation (presence of a vehicle and 0.2% DMSO) to allow for easy comparison between phytocannabinoid activities. We fitted all concentration-response curves to a 4-parameter sigmoidal inhibitory response curve in GraphPad Prism (Version 6 GraphPad Software Inc., CA, United States) to derive IC50 and Emax values. All statistical analyses were conducted with GraphPad Prism. Two-tailed, unpaired t-tests were used to compare two data points and one-way ANOVA for more than two data points with Tukey post-hoc analysis. p-values < 0.05 were considered statistically significant.
(§3) Our investigation of T-type channels began with a single-point screen, as described by [Bladen et al. (2021)]. We screened the inhibitory effect of 10 µM phytocannabinoids on the change in fluorescence elicited by the addition of 10 mM Ca^2+ in cells expressing Cav3.1, Cav3.2 or Cav3.3 channels ([Xie et al., 2007]; [Bladen et al., 2021]).

Cav3.1 [3] = target: T2, Cav3.1 (Homo sapiens, UniProt O43497); assay: as above; type: cell-based; conditions: for IC50: FLIPR concentration-response, HEK293 Cav3.1 cells, read-out: IC50, inhibition of change in fluorescence, Cav3.1; for % Inhibition of Fluorescence Cav3.1: 10 µM compound, 10 mM Ca-induced fluorescence, HEK293 cells, mean ± SEM
T2 construct: expressed in transfected cells; host or cells: HEK293 Flp-In T-REx
Description: as §1, §2, §3

Cav3.3 = target: T3, Cav3.3 (Homo sapiens, UniProt Q9P0X4); assay: as above; type: cell-based; conditions: 10 µM compound, HEK293 cells, mean ± SEM
T3 construct: expressed in transfected cells; host or cells: HEK293 Flp-In T-REx
Description: as §1, §2, §3

GPR55 = target: T4, GPR55 (Homo sapiens, UniProt Q9Y2T6); assay: Alphascreen ERK phosphorylation assay, antagonism of ML-186-induced ERK phosphorylation; type: cell-based; conditions: in the presence of EC80 of ML-186 (0.45 µM), HEK 293 GPR55 cells
T4 construct: expressed in transfected cells; host or cells: HEK 293
Description: as §2

Cav3.1 [4] = target: T2, Cav3.1; assay: Whole-cell voltage-clamp electrophysiology in HEK293 Flp-In T-REx cells; type: cell-based
Description: All whole-cell voltage-clamp recordings from HEK293 Flp-In T-REx cells stably transfected with human Cav3.1, Cav 3.2 and Cav 3.3 were performed at room temperature. At least 24 h prior to experiments, cells were detached from flasks using trypsin/EDTA and plated into 10 cm sterile tissue culture dishes containing 10 ml of supplemented DMEM and 10–15 glass coverslips (12 mm diameter, ProScitech, QLD, Australia). Culture dishes were then kept overnight in same conditions as flasks to allow cells to adhere to coverslips. They were then transferred to a 30°C/5% CO2 incubator to inhibit cell proliferation until ready to be used for electrophysiology experiments. At this stage, channel expression was induced with tetracycline (2 μg/ml, Sigma-Aldrich) 8–24 h prior to recording cells.
External recording solutions contained (in mM): 114 CsCl, 5 BaCl2, 1 MgCl2, 10 HEPES, 10 glucose, adjusted to pH 7.4 with CsOH. The internal patch pipette solution contained (in mM): 126.5 CsMeSO4, 2 MgCl2, 11 EGTA, 10 HEPES adjusted to pH 7.3 with CsOH. Internal solution was supplemented with 0.6 mM GTP and 2 mM ATP and mixed thoroughly just before use. Liquid junction potentials for the above solutions were calculated before experiments using pClamp 10 software and corrected during experiments. Compounds were prepared daily from 30 mM DMSO stocks and diluted into an external solution just before use. Compounds were then applied rapidly and locally to the cells using a custom-built gravity-driven micro-perfusion system ([Feng et al., 2003]). […] Currents were elicited from a holding potential of -100 mV and were measured by conventional whole-cell patch clamp techniques using an Axopatch 200B amplifier in combination with Clampex 9.2 software. (Molecular Devices, Sunnyvale, CA). After establishing whole cell configuration, cellular capacitance was minimised using the amplifier’s built-in analogue compensation. Series resistance was kept to <10 MΩ and was compensated to at least 85% in all experiments. All data were digitised at 10 kHz with a Digidata 1,320 interface (Molecular Devices) and filtered at 1 kHz (8-pole Bessel filter). Raw and online leak-subtracted data were both collected simultaneously, P/N4 leak subtraction was performed using opposite polarity and after the protocol sweep.
For tonic inhibition of T-type currents, membrane potential was stepped from −100 mV to −30 mV for 200 ms and then allowed to recover for 12 s (1 sweep). A minimum of 10 sweeps were collected under vehicle control external perfusion to allow for control peak current to equilibrate. The drug was then continuously perfused, and sweeps were recorded until no further inhibition was seen (minimum of 3 sweeps with the same amplitude). In current-voltage relation studies, the membrane potential was held at −100 mV and cells were depolarised from −70 to 50 mV in 10 mV increments. For steady-state inactivation studies, a 3.6 s conditioning pre-pulse of various magnitudes (initial holding at −110 mV) was followed by a depolarising pulse to −30 mV. Individual sweeps were separated by 12 s to permit recovery from inactivation between conditioning pulses. The duration of the test pulse was typically 20 ms, and the current amplitude obtained from each test pulse was normalised to that observed at the holding potential of −100 mV.
The effect of CBGVA and CBDVA (5 µM each) on slow inactivation was tested using a 2-pulse voltage protocol as described in Bladen et al., (2021). Briefly, cells expressing Cav3.1 were initially depolarised with a 200 ms test pulse from -120 mV to −30 mV to generate peak current (P1) and followed by a 10 s pre-conditioning pulse to −80 mV to reverse fast inactivation. Cells were further depolarised with another 200 ms test pulse from −120 to −30 mV (P2) (Figure 2 inset).
THC and CBD cause substantial frequency-dependent inhibition of Cav3.2 and Nav1.8 channels, respectively ([Ross et al., 2008]; [Bladen et al., 2021]; [Zhang and Bean, 2021]). […]

[5] = ref Anderson et al., cited from earlier work
[6] = test system: hyperthermia-induced seizures; set-up: method as in earlier work; conditions: Scn1a+/- mice, ref Anderson et al., 2019, 2021a, 2021b; cited from earlier work
Cav3.1 [7] = test system: Cav3.1; set-up: method as in Ross et al., 2008; conditions: ref Ross et al., 2008; read-out: IC50, inhibition of peak Cav3.1 currents; cited from earlier work
Cav3.2 [8] = test system: Cav3.2; set-up: method as in Ross et al., 2008; conditions: ref Ross et al., 2008; read-out: IC50, inhibition of peak Cav3.2 currents; cited from earlier work

T2 sequence (O43497 whole entry): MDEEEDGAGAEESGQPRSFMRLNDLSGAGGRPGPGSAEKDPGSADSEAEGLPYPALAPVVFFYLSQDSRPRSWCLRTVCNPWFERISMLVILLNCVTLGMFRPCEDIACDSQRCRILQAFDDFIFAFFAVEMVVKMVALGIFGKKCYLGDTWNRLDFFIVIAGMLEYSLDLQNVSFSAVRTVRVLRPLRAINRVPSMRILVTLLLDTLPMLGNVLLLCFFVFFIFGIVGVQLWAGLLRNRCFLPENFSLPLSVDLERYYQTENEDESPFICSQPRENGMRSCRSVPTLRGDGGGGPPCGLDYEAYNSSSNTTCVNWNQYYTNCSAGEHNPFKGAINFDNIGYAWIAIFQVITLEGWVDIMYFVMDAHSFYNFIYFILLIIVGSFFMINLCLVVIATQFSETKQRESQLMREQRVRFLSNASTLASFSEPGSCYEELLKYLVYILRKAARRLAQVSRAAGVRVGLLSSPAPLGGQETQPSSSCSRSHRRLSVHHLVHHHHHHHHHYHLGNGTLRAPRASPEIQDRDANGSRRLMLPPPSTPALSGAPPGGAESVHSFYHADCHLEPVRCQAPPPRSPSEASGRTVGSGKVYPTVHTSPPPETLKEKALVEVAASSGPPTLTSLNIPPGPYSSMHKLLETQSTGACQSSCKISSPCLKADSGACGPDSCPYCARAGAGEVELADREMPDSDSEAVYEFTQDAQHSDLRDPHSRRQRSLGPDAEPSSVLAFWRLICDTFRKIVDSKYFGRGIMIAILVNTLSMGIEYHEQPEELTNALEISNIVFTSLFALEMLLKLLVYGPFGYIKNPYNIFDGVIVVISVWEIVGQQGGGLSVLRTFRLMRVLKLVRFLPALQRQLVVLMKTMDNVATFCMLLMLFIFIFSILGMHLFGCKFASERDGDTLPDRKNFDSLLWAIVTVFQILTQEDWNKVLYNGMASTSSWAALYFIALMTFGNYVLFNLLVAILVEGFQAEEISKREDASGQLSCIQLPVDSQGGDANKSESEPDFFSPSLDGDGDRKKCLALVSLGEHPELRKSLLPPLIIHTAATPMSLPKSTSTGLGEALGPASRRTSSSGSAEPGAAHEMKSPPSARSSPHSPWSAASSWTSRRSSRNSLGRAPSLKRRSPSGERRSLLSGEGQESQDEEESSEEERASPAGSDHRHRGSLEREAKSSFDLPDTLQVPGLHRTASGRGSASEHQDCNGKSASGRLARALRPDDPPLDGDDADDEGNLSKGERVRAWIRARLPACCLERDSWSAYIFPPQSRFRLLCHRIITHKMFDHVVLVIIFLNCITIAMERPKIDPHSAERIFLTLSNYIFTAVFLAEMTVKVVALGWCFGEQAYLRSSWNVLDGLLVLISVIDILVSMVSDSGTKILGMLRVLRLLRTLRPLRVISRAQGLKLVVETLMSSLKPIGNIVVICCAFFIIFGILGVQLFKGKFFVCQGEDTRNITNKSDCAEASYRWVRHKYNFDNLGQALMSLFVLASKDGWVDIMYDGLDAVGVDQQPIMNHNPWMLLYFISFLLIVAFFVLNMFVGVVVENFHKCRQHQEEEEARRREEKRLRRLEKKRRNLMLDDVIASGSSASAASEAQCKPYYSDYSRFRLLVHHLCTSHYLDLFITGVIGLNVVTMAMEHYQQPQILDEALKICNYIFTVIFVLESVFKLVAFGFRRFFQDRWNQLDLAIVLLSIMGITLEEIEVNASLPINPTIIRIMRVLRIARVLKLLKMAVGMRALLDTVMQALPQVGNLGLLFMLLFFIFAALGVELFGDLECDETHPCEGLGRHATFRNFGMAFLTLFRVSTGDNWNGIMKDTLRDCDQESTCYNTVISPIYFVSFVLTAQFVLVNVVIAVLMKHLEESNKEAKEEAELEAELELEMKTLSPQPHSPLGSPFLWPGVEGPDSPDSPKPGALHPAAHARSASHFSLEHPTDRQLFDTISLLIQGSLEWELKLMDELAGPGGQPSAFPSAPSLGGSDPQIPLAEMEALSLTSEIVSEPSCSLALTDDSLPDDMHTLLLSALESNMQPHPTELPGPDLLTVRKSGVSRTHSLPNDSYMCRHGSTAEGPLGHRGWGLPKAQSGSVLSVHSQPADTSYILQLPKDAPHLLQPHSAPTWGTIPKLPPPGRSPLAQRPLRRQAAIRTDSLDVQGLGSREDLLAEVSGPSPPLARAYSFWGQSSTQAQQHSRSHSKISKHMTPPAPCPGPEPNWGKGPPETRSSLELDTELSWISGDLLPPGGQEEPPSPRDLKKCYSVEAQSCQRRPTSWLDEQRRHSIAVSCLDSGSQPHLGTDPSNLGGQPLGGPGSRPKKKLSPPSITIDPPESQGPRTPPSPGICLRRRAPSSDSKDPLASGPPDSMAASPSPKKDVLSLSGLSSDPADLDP
T3 sequence (Q9P0X4 whole entry): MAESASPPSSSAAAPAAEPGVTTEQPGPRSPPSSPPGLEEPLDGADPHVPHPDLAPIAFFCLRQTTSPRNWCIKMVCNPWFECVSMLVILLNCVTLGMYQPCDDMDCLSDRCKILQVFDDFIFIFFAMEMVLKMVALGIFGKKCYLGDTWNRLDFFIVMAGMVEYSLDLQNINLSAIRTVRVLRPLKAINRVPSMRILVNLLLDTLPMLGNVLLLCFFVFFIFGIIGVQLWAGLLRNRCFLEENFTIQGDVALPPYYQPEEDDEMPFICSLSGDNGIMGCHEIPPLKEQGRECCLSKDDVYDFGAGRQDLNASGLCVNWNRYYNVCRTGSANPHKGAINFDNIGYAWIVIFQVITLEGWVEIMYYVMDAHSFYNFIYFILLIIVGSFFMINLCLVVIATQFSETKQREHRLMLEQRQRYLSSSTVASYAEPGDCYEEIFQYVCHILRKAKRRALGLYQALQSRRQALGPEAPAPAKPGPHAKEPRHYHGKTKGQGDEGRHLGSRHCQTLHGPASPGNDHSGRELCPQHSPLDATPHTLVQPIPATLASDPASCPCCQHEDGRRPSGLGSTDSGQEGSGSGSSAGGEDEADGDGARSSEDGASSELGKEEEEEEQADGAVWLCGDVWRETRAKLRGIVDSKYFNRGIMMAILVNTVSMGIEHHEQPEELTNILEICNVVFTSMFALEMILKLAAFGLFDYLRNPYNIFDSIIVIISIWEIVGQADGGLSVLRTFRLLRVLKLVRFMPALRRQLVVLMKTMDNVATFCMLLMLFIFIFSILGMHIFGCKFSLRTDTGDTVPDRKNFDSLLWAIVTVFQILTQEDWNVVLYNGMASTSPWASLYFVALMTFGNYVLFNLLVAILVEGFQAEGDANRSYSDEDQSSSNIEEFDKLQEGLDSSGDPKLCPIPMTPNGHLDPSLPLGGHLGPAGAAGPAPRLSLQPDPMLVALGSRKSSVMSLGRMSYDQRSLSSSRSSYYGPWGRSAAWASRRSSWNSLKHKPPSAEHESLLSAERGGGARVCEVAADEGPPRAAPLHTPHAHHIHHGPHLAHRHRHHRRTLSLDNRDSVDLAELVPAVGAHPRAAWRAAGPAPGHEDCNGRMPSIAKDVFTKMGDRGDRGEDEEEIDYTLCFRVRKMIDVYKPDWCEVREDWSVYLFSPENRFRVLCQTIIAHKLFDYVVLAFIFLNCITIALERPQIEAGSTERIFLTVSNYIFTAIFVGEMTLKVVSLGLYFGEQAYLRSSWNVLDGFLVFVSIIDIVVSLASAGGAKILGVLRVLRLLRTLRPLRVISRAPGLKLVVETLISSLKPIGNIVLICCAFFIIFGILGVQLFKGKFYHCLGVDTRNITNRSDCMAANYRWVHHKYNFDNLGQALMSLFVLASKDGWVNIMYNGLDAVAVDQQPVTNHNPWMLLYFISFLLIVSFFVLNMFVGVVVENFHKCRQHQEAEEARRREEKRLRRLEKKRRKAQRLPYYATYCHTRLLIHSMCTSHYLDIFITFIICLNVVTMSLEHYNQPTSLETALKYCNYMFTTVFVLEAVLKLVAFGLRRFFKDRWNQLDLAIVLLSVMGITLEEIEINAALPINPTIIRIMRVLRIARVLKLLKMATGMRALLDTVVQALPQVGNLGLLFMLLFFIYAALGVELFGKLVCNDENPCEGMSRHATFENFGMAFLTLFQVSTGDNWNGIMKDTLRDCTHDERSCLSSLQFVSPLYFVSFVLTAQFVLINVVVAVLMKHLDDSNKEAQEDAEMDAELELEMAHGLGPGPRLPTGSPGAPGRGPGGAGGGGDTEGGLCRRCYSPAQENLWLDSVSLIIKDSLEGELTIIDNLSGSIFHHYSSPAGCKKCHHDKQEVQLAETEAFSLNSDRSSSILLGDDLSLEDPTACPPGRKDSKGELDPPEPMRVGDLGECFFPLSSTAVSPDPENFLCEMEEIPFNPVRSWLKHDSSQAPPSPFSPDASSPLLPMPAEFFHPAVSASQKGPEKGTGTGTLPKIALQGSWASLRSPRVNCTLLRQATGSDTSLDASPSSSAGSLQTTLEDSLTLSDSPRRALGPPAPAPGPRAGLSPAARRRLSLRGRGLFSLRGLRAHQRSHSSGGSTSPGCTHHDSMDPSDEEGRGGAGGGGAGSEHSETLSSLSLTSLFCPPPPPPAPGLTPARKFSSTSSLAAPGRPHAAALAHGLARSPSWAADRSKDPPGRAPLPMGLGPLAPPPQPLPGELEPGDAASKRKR
T4 sequence (Q9Y2T6 whole entry, species assumed): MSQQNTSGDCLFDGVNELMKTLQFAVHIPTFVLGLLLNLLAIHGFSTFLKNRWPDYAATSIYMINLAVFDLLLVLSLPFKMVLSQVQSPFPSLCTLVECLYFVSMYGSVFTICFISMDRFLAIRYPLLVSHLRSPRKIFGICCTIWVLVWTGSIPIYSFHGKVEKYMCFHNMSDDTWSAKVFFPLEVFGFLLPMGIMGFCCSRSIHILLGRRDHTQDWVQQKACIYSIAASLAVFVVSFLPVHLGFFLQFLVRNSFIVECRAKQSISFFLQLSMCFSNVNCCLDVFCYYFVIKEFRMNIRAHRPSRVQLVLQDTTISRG

Compound: CCCc1cc(O)c(C/C=C(\C)CCC=C(C)C)c(O)c1C(=O)O [CBGVA, cannabigerovarinic acid]
- expected brain concentration [1]: 48 µM
- IC50 (Cav3.2 [2]; FLIPR concentration-response, HEK293 Cav3.2 cells, read-out: IC50, inhibition of change in fluorescence, Cav3.2): 2000 nM
- IC50 (Cav3.1 [3]): 6000 nM
- % Inhibition of Fluorescence Cav3.3 (Cav3.3): 35 ± 11%
- IC50 (GPR55): 8000 nM
- V0.5 of voltage dependence of Cav3.1 activation (Cav3.1 [4]; 5 µM compound): −49.1 ± 0.5 mV
- half-inactivation (V0.5), steady-state inactivation of Cav3.1 (Cav3.1 [4]; 5 µM compound): −82.1 ± 0.8 mV
- Cav3.1 relative current at 50th action potential, % of first (Cav3.1 [4]; 5 µM, 0.4 Hz stimulation): 73 ± 3%
- Cav3.1 relative current at 50th action potential, % of first (Cav3.1 [4]; 5 µM, 0.8 Hz stimulation): 88 ± 1%
- inhibition of Cav3.1 peak current, second test pulse (P2), slow inactivated state (Cav3.1 [4]; 5 µM, 2-pulse voltage protocol, after 10 s pre-conditioning pulse to −80 mV): 72 ± 3%
- inhibition of Cav3.1 peak current, first test pulse (P1) (Cav3.1 [4]; 5 µM, 2-pulse voltage protocol, before slow inactivation): 61 ± 3%
- Cav3.1 relative current at 50th action potential, % of first (Cav3.1 [4]; 5 µM, 2.0 Hz stimulation): 77 ± 1%
- IC50 (Cav3.1 [4]; patch clamp, step −100 mV to −30 mV every 12 s, read-out: IC50, tonic inhibition of Cav3.1 current amplitude): 3000 nM
- Peak plasma concentration ([5]; anticonvulsant doses in mice, 2021b): approximately 1,200 µM
- brain-plasma ratio [5]; 2019: 4%
- effect against hyperthermia-induced seizures [6]: anticonvulsant

Compound: CCCc1cc(O)c(C/C=C(\C)CCC=C(C)C)c(O)c1 [CBGV]
- % Inhibition of Fluorescence Cav3.1 (Cav3.1 [3]): < 80% and 51 ± 14%
- % Inhibition of Fluorescence Cav3.3 (Cav3.3): 6 ± 3%

Compound: CC(C)[C@H]1c2ccc(F)cc2CC[C@@]1(CCN(C)CCCc1nc2ccccc2[nH]1)OC(=O)C1CC1 [NNC550396, reference compound]
- % Inhibition of Fluorescence Cav3.1 (Cav3.1 [3]): 82 ± 8%
- IC50 (Cav3.1 [3]): 730 nM
- % Inhibition of Fluorescence Cav3.3 (Cav3.3): 89 ± 2%

Compound: CCCCCc1cc(O)c(C/C=C(\C)CCC=C(C)C)c(O)c1C(=O)O [CBGA, cannabigerolic acid]
- effect against hyperthermia-induced seizures [6]: anticonvulsant

Compound: C=C(C)[C@@H]1CCC(C)=C[C@H]1c1c(O)cc(CCCCC)cc1O [CBD, cannabidiol]
- IC50 (Cav3.1 [7]): ~1000 nM
- IC50 (Cav3.2 [8]): ~1000 nM

Compound: CCCc1cc2c(c(O)c1C(=O)O)C=CC(C)(CCC=C(C)C)O2 (stereo not shown) [CBCVA, cannabichrovarinic acid]
- % Inhibition of Fluorescence Cav3.2 (Cav3.2 [2]): 62 ± 8%
- % Inhibition of Fluorescence Cav3.1 (Cav3.1 [3]): 51 ± 8%
- % Inhibition of Fluorescence Cav3.3 (Cav3.3): 34 ± 12%
- effect against hyperthermia-induced seizures [6]: anticonvulsant

Compound: CCCc1cc(O)c2c(c1)OC(C)(CCC=C(C)C)C=C2 (stereo not shown) [CBCV]
- % Inhibition of Fluorescence Cav3.2 (Cav3.2 [2]): -37 ± 21%
- effect on influx of Ca2+ ions in cells expressing Cav3.2 (Cav3.2 [2]; 10 µM, FLIPR): appeared to increase the influx of Ca^2+ ions
- % Inhibition of Fluorescence Cav3.3 (Cav3.3): 1 ± 1%

Compound: CCCCCc1cc2c(c(O)c1C(=O)O)C=CC(C)(CCC=C(C)C)O2 (stereo not shown) [CBCA, cannabichromenic acid]
- % Inhibition of Fluorescence Cav3.1 (Cav3.1 [3]): 59 ± 9%
- % Inhibition of Fluorescence Cav3.3 (Cav3.3): 11 ± 10%
- effect against hyperthermia-induced seizures [6]: anticonvulsant
